# Measurements from patent US20240325420A1, “COMPOSITION INCLUDING PAEONIFLORIN FOR PREVENTION OR TREATMENT OF CACHEXIA AND MUSCLE LOSS” (CHUNG ANG UNIVERSITY INDUSTRY ACADEMIC COOPERATION …, priority 2021, published 2024).
# Key:
# [1] = test system: GDF-15; experiment: GDF-15 by ELISA in C57BL/6 mice with Lewis lung carcinoma-induced cachexia; format: in vivo; settings: Lewis lung carcinoma-injected, paeoniflorin orally for 9 days, FIG. 18
# Method: Each mouse of the control group was injected subcutaneously with 100 μL of saline solution. For the cachexia-induced groups, Lewis lung carcinoma cells (C57BL/6 mice) or colon-26 carcinoma cells (Balb/c mice) were injected subcutaneously into the flank area of each mouse at a dose of 10^6 cells/100 μL/mouse. […] After completion of 9 days of administration, the muscle strength of the mice was measured using a grip strength test device (Bioseb, USA), and the endurance of the mice was measured using a treadmill device (Columbus Instrument, USA).
# After completion of the experiment, the mice were euthanized, blood was collected therefrom, the body weight excluding tumors, and the weights of the hind limb gastrocnemius muscle and quadriceps muscle were measured. GDF-15 in the serum was quantified by ELISA.
# After oral administration of paeoniflorin to the tumor-induced mice for 9 days, blood was collected from the mice, and the plasma concentration of GDF-15 protein was analyzed by ELISA.
# [2] = test system: myosin heavy chain (MyHC) and myoblast determination protein (MyoD); experiment: Protein levels of MyHC and MyoD in gastrocnemius muscle by Western blotting; format: in vivo; settings: C57BL/6 mice, cisplatin-treated, Pae 10 and Pae 20 vs vehicle
# Method: (§1) In addition, cisplatin-treated mice orally administered the same volume of distilled water were designated as the vehicle group. After completion of drug treatment, the mice of each group were euthanized with 10 mg/kg alfaxalone (Jurox, Rutherford, Australia). Blood was collected in test tubes containing EDTA, and centrifuged, and plasma was separated therefrom. Gastrocnemius and quadriceps skeletal muscles were dissected and weighed. The skeletal muscles were rapidly frozen in liquid nitrogen to be used for RT-qPCR, Western blotting, and ELISA.
# Proteins were extracted from skeletal muscle using NucleoSpin kits (Macherey-Nagel, Duren, Germany) and quantified using the BCA Protein Assay Kit (Pierce, Rockford, IL, USA). Anti-β-actin antibody was used to quantify protein loading. For myosin protein (MyHC, myosin heavy chain), myogenic factor (MyoD), and NF-κB signaling system (p-IKK, IKK, p-IκB, and IκB), protein levels in the gastrocnemius muscle were measured by Western blotting. Band intensities were quantified using ImageJ software (NIH, Bethesda, MD, USA).
# In order to measure the mRNA and protein levels of major factors involved in muscle loss, muscle contraction, and muscle differentiation, the mRNA and protein levels in the skeletal muscle tissues from C57BL/6 mice were measured by real-time PCR and Western blotting.
# [3] = test system: TNF-α, IL-6, IL-1β, IL-1α, CCL2 and CCL5; experiment: mRNA levels of pro-inflammatory cytokines and chemokines in skeletal muscle by real-time PCR, C57BL/6 mice; format: in vivo; settings: cisplatin-treated, Pae 10 and Pae 20 vs vehicle
# Method: as §1
# Total RNA was isolated from skeletal muscle using Qiazol (Qiagen, Germany), and then the mRNA levels of pro-inflammatory cytokines and muscle-specific ubiquitin E3 ligases (MuRF1 and MAFbx) were measured by real-time PCR.
# The mRNA levels of pro-inflammatory cytokines such as TNF-α, IL-6, IL-1β, and IL-1α, as well as chemokines such as CCL2 and CCL5, in the skeletal muscle, were measured by real-time PCR.
# [4] = test system: C2C12 myoblasts; experiment: Myotube differentiation of C2C12 myoblasts; format: cell-based
# Method: C2C12 myoblasts were purchased from ATCC (Manassas, Virginia, USA) and cultured using DMEM containing 10% fetal bovine serum. After the cells reached 70% confluence, myotube differentiation was induced while the medium was replaced with DMEM containing 2% horse serum every two days. A negative control group was treated with […] of TNF-α, which inhibits myotube differentiation. While the myoblasts were treated with paeoniflorin at a concentration of 50 to 200 μM along with TNF-α, the degree of myotube differentiation was observed and the length of differentiated myotubes was measured using the Image J program.
# [5] = test system: C57BL/6 mice with cisplatin-induced cachexia; experiment: Body weight and muscle mass in cisplatin-treated C57BL/6 mice; format: in vivo
# Method: (§2) The animal experiments were performed in accordance with internationally accepted principles for laboratory animal use and care, and the corresponding study protocol was reviewed and approved by the Institutional Animal Care and Use Committee (IACUC) at Chung-Ang University (approval #2021-00022). Four-week-old female C57BL/6 mice and Balb/c mice were purchased from Raonbio Inc. (Yongin, Korea) and were provided with standard laboratory diet and water ad libitum in the animal facility of Chung-Ang University. After a week of acclimation, the mice were intraperitoneally injected three times with 3 mg/kg/day cisplatin, suspended in 200 μL saline, every other day. Control group mice (sham-treated mice) were injected with the same volume of saline under the same regimen. The cisplatin-treated groups were orally administered paeoniflroin (Pae) or megestrol acetate (MA), suspended in 200 μL distilled water, every day until euthanasia.
# Specifically, the cisplatin-treated groups were orally administered paeoniflorin (prepared in Example 1) at a dose of 5 (Pae 5 group), 10 (Pae 10 group), or 20 (Pae 20 group) mg/kg once daily for 9 days. The comparative drug-treated group was orally administered megestrol acetate (MA), which is currently most commonly prescribed for cancer cachexia patients in clinical practice, at a dose of 160 mg/kg (=800 mg [daily human dose]/60 kg [average human body weight]×12 [dose equivalent factor based on human:mouse body surface area ratio], once daily for 9 days.
# as §1
# [6] = test system: Balb/c mice with cisplatin-induced cachexia; experiment: Skeletal muscle function test in cisplatin-treated Balb/c mice; format: in vivo; settings: oral paeoniflorin
# Method: as §2, with “Control group mice (sham-treated mice) were injected with the same volume of saline under the same regimen. The cisplatin-treated groups were orally administered paeoniflroin (Pae) or megestrol acetate (MA), suspended in 200 μL distilled water, every day until euthanasia.” left out
# A skeletal muscle function test was conducted one day before euthanasia. Muscle strength of each mouse was measured by the grip strength of front paws, and endurance of each mouse was measured by treadmill running time until exhaustion. Motor coordination was measured by retention time on a rotating cylinder with a diameter of 3 cm (Castro and Kuang, 2017). The grip strength of each mouse was measured using a grip strength meter (Bio-GS3, Bioseb, Vitrolles, France). The treadmill running time of each mouse was measured on a treadmill (Exer-3/6, Columbus Instruments, […], USA). The ability of each mouse to stay on a rotating cylinder was measured using a rotarod apparatus (Panlab, Barcelona, Spain).
structure (smiles),measurement,setting,value
C[C@@]12C[C@@]3(O)O[C@@H](O1)[C@]1(COC(=O)c4ccccc4)[C@H]3C[C@@]12O[C@@H]1O[C@H](CO)[C@@H](O)[C@H](O)[C@H]1O [paeoniflorin],serum concentration of GDF-15,[1],significantly decreased
same,MyHC protein level,"[2]; FIGS. 6C, 7A",increased
same,MyoD protein level,"[2]; FIGS. 6D, 7B",increased
same,TNF-α mRNA expression level in the muscle,[3]; FIG. 8A,decreased
same,IL-6 mRNA expression level in the muscle,[3]; FIG. 8B,decreased
same,IL-1β mRNA expression level in the muscle,[3]; FIG. 8C,decreased
same,IL-1α mRNA expression level in the muscle,[3]; FIG. 8D,decreased
same,CCL2 mRNA expression level in the muscle,[3]; FIG. 8E,decreased
same,CCL5 mRNA expression level in the muscle,[3]; FIG. 8F,decreased
same,myotube differentiation,"[4]; paeoniflorin 50 to 200 μM along with TNF-α, FIG. 19",promoted
same,myotube length,"[4]; paeoniflorin-treated groups vs negative control group (TNF-α+Pae 0 μM), FIG. 20",significantly increased
same,cisplatin-induced weight loss (body weight),"[5]; cisplatin 3 mg/kg/day i.p. three times, paeoniflorin 10 or 20 mg/kg orally daily for 9 days, vs vehicle, FIG. 1A",attenuated
same,weight of gastrocnemius muscle (skeletal muscle mass),"[5]; cisplatin-treated, paeoniflorin 10 or 20 mg/kg orally daily, FIG. 1B",restored
same,weight of quadriceps muscle (skeletal muscle mass),"[5]; cisplatin-treated, paeoniflorin 10 or 20 mg/kg orally daily, FIG. 1C",restored
same,muscle strength,[6]; FIG. 4A,similarly restored
same,endurance,[6]; FIG. 4B,similarly restored
